From publication PMC3037034 (ACS Medicinal Chemistry Letters, 2010) come the findings set out here.

The target in one assay is T1, human COX-2 (Homo sapiens, UniProt P35354).
T1 sequence (P35354 18-604): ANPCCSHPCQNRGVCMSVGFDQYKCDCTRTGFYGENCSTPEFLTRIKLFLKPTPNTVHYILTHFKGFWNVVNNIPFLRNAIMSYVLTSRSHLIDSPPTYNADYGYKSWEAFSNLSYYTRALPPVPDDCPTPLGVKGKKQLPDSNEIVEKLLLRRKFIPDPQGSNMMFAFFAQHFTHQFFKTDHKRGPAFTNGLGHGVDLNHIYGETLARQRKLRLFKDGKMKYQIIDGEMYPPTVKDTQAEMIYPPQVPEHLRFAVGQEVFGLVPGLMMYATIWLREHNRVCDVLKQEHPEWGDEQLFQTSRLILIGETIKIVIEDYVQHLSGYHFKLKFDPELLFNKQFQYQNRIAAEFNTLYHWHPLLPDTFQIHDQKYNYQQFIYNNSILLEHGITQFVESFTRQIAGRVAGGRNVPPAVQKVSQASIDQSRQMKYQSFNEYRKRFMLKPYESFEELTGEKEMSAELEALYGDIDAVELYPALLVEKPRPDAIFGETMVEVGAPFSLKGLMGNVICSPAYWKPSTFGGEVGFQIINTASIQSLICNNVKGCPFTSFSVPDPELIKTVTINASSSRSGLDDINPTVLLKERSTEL
The assay is described as follows: purified COX-2 inhibition, TLC assay. The format is biochemical. Conditions: for COX-2 inhibitory activity (in words): purified COX-2.

A further assay addresses T2, ovine COX-1 (Ovis aries, UniProt P05979).
T2 sequence (P05979 25-600): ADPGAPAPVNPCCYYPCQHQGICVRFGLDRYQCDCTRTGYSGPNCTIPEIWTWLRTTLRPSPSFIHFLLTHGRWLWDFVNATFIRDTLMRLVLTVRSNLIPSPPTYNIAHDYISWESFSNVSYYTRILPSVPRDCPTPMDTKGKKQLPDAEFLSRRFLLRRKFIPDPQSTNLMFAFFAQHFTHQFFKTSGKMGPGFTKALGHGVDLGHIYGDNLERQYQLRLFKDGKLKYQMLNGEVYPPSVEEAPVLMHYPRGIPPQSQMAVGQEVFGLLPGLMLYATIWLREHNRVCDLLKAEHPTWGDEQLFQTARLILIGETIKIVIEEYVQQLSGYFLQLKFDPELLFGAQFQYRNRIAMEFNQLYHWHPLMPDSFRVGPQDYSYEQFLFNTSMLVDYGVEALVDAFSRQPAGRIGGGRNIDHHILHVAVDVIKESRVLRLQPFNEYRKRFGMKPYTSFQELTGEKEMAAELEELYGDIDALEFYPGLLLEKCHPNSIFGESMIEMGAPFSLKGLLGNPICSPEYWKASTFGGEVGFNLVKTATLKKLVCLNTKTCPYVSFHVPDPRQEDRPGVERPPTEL
The assay is described as follows: purified COX-1 inhibition, TLC assay. The format is biochemical. The settings on record: at concentrations up to 5 μM.

`CS(=O)(=O)c1ccc(-n2nc(C(F)(F)F)cc2-c2cccc(I)c2)cc1` [compound 7] registered an IC50 against human COX-2 of 320 nM.

As to `COC(=O)c1cc(-c2cccc(I)c2)n(-c2ccc(S(C)(=O)=O)cc2)n1` [compound 9], the 50% inhibitory concentration (IC50) against human COX-2 is > 4000 nM.

In turn, `CCOC(=O)c1cc(-c2ccc(I)cc2)n(-c2ccc(S(N)(=O)=O)cc2)n1` [compound 4] had a 50% inhibitory concentration (IC50) against human COX-2 of 260 nM.

Regarding `CS(=O)(=O)c1ccc(-n2nc(C(F)(F)F)cc2-c2ccc(I)cc2)cc1` [compound 8, 5-(4-iodophenyl)-1-{4-(methylsulfonyl)phenyl}-3-(trifluoromethyl)-1H-pyrazole], the “inhibition of COX-1 (in words)” value against ovine COX-1 is “without inhibition”. Half-maximal inhibition against human COX-2 (IC50) was put at 50 nM.

In turn, `COC(=O)c1cc(-c2ccc(I)cc2)n(-c2ccc(S(C)(=O)=O)cc2)n1` [compound 10] showed an IC50 against human COX-2 of 3000 nM.

Molecule `COC(=O)c1cc(-c2cccc(I)c2)n(-c2ccc(S(N)(=O)=O)cc2)n1` [compound 2] came in with an IC50 against human COX-2 of 3800 nM.

For `NS(=O)(=O)c1ccc(-n2nc(CCC(=O)O)cc2-c2cccc(I)c2)cc1` [compound 5], at human COX-2, the IC50 is > 4000 nM and the “COX-2 inhibitory activity (in words)” value is “inactive”.

In the case of `COC(=O)c1cc(-c2ccc(I)cc2)n(-c2ccc(S(N)(=O)=O)cc2)n1` [compound 3], on human COX-2, the midpoint of inhibition, the IC50, lay at 560 nM.

In the case of `NS(=O)(=O)c1ccc(-n2nc(CCC(=O)O)cc2-c2ccc(I)cc2)cc1` [compound 6], at human COX-2, the half-inhibitory concentration (IC50) was > 4000 nM and the “COX-2 inhibitory activity (in words)” value is “inactive”.
